Tested on: HCV genotype 1a replicon cell line
Assay: HCV Genotype 1a Replicon Assay
Assay type: cell-based, hepatitis C virus
Details: Huh7.5 cell background, NS3-specific protease activity in lysates, 48 or 72 hours; for EC50: Hepatitis C virus, read-out: Genotype 1a (pEC50 class) (converted)
Method: Assay 2: HCV Genotype 1a Replicon Assay
The HCV genotype 1a replicon cell line was obtained from Apath LLC (APC89; Huh7.5 cell background). This subgenomic replicon contains the N-terminus of the HCV core protein fused to the neomycin-resistance selectable marker. The EMCV IRES lies downstream and drives expression of the non-structural proteins NS3-NS5B. Compound potencies were determined using the NS3-specific protease activity in lysates as a measurement of compound inhibition of replicon levels.
Cells were grown at 37° C. in a 5% CO2 humidified incubator in DMEM (Invitrogen) with 10% FBS (HyClone), 1×NEAA (Invitrogen), 1× Pen-Strep (Invitrogen), and 850 μg/mL G418 (Invitrogen). On day 1 of the assay, cells were plated at 15,000 cells/well in black 96-well tissue culture plates (Costar) in 200 μL media lacking G418. Four hours later, once the cells had adhered, the media was removed and replaced with media (no G418) containing dose-responses of test compounds. Compounds were initially diluted in DMSO and then diluted another 200× in media to bring the final DMSO concentration down to 0.5%. The cells were incubated with test compounds for 48 or 72 hours. At the end of the incubation period, media and compound were removed from the plates.
To determine the NS3-specific protease activity in lysates, the cells were lysed at room temperature in 50 μL/well of 50 mM Hepes pH 7.5, 150 mM NaCl, 15% Glycerol, 0.15% Triton X-100, 10 mM DTT for 20 minutes with shaking. 50 μL of an NS3/4a protease-specific FRET substrate (Anaspec RET SI Cat#22991) was then added to the wells at a final concentration of 15 μM. The plates were incubated at 37° C. for 20 minutes, which corresponds to a timepoint at which the protease activity is still in the linear phase. Protease activity was determined by measuring fluorescence (Excitation: 340 nm; Emission: 509 nm).
To analyze the data, the fluorescence was plotted vs. the compound concentration, and EC50 values were determined from a 4-parameter robust fit model using GraphPad Prism software.

Row | SMILES | EC50 | Genotype 1a (pEC50 class)
1 | COC(=O)N[C@H](C(=O)N1C[C@@H](C)C[C@H]1c1nc2c(ccc3cc(-c4ccc(NC(=O)N5CCN(C6CCN(C(=O)C7CC7)CC6)CC5)cc4OC(F)(F)F)ccc32)[nH]1)C1CCOCC1 [Example 7-4] | < 0.1 nM | –
2 | COC(=O)N[C@H](C(=O)N1C[C@@H](C)C[C@H]1c1nc(-c2ccc(-c3cc(Cl)c(NC(=O)N4CCN(C5CCN(C(=O)C6CC6(F)F)CC5)CC4)cc3OC(F)(F)F)cc2)c[nH]1)C(C)C (stereo partly shown) [Example 5] | 0.1 to 1 nM | –
3 | [2H]C([2H])([2H])C1(C([2H])([2H])[2H])CC1C(=O)N1CCC(N2CCN(C(=O)Nc3ccc(-c4ccc(-c5nc([C@@H]6C[C@H](C)CN6C(=O)[C@@H](NC(=O)OC)C(C)C)[nH]c5Cl)cc4)c(OC(F)(F)F)c3)CC2)CC1 (stereo partly shown) [Example 2-27] | – | D (D represents pEC50>10 (EC50<0.1 nM))
4 | COC(=O)N[C@H](C(=O)N1CCC(N2CCN(C(=O)Nc3ccc(-c4ccc(-c5c[nH]c([C@@H]6CCCN6C(=O)[C@@H](NC(=O)OC)C(C)C)n5)cc4)c(OC(F)(F)F)c3)CC2)CC1)C(C)C [Example 1-29] | – | A (A represents a pEC50 value between 6 and 8 (EC50 between 1 μM and 10 nM))
5 | COC(=O)N[C@H](C(=O)N1[C@@H](C)CC[C@H]1c1nc(-c2ccc(-c3ccc(NC(=O)N4CCN(C5CCN(C(=O)C(C)(C)C)CC5)CC4)cc3OC(F)(F)F)cc2)c[nH]1)C(C)C [Example 8-3] | 0.1 to 1 nM | –
6 | COC(=O)N[C@H](C(=O)N1C[C@@H](C)C[C@H]1c1nc(-c2ccc(-c3cc(Cl)c(NC(=O)N4CCC(N5CCN(C(=O)C(C)(C)C)CC5)CC4)cc3OC(F)(F)F)cc2)c[nH]1)C(C)C [Example 4-13] | – | B (B represents pEC50 between 8 and 9 (EC50 between 1 and 10 nM))
7 | COC(=O)N[C@H](C(=O)N1C[C@@H](C)C[C@H]1c1nc2c(ccc3cc(-c4ccc(NC(=O)N5CCN(C6CCN(C(=O)[C@H]7CC7(C)C)CC6)CC5)cc4OC(F)(F)F)ccc32)[nH]1)C1CCOCC1 [Example 7-5] | – | D (D represents pEC50>10 (EC50<0.1 nM))
8 | COC(=O)N[C@H](C(=O)N1CCC[C@H]1c1nc(-c2ccc(-c3cc(Cl)c(NC(=O)N4CCN(C5CCN(C(=O)C6CC6)CC5)CC4)cc3OC(F)(F)F)cc2)c[nH]1)C(C)C [Example 1-33] | – | C (C represents pEC50 between and 9 and about 10, (EC50 between 1 nM and 0.1 nM))
9 | COC(=O)NC(C(=O)N1CCCC1c1nc(-c2ccc(-c3ccc(NC(=O)N4CCN(C5CCN(C(=O)C6CC6(C)C)CC5)C(C)C4)cc3OC(F)(F)F)cc2)c[nH]1)C(C)C (stereo not shown) [Example 1-37] | – | B (B represents pEC50 between 8 and 9 (EC50 between 1 and 10 nM))
10 | COC(=O)N[C@H](C(=O)N1C[C@@H](C)C[C@H]1c1nc(-c2ccc(-c3cc(Cl)c(NC(=O)N4CCN(C5CCN(C(=O)C6CC6(Cl)Cl)CC5)CC4)cc3OC(F)(F)F)cc2)c[nH]1)C(C)C (stereo partly drawn) [Example 2, [(S)-1-((S)-2-{4-[5′-Chloro-4′-({4-[1-(2,2-dichloro-cyclopropanecarbonyl)-piperidin-4-yl]-piperazine-1-carbonyl}-amino)-2′-trifluoromethoxy-biphenyl-4-yl]-1H-imidazol-2-yl}-4-methyl-pyrrolidine-1-carbonyl)-2-methyl-propyl]-carbamic acid methyl ester] | 1 to 10 nM | –
11 | COC(=O)N[C@H](C(=O)N1C[C@@H](C)C[C@H]1c1nc(-c2ccc(-c3cc(Cl)c(NC(=O)N4CCN(C5CCN(C(=O)C6CCC6)CC5)CC4)cc3OC(F)(F)F)cc2)c[nH]1)C(C)C [Example 6] | 0.1 to 1 nM | –
12 | CCN(CC)[C@@H](C(=O)N1CCC(N2CCN(C(=O)Nc3ccc(-c4ccc(-c5c[nH]c([C@@H]6CCCN6C(=O)[C@@H](NC(=O)OC)C(C)C)n5)cc4)c(OC(F)(F)F)c3)CC2)CC1)C(C)C [Example 1-30] | – | A (A represents a pEC50 value between 6 and 8 (EC50 between 1 μM and 10 nM))
13 | COC(=O)N[C@H](C(=O)N1CCC[C@H]1c1nc(-c2ccc(-c3ccc(NC(=O)N4CC5CCC(C4)N5C4CCN(C(=O)C5CC5)CC4)cc3OC(F)(F)F)cc2)c[nH]1)C(C)C [Example 8-1] | 1 to 10 nM | –
14 | COC(=O)N[C@H](C(=O)N1CCC[C@H]1c1nc(-c2ccc(-c3ccc(NC(=O)N4CCN(C5CCN(C(=O)c6ncccn6)CC5)CC4)cc3OC(F)(F)F)cc2)c[nH]1)C(C)C [Example 1-21] | – | B (B represents pEC50 between 8 and 9 (EC50 between 1 and 10 nM))
15 | COC(=O)NC(C(=O)N1CCCC1c1nc(-c2ccc(-c3ccc(NC(=O)N4CCN(C5CCN(C(=O)C(C)(C)C)CC5)C(CO)C4)cc3OC(F)(F)F)cc2)c[nH]1)C(C)C (stereo not shown) [Example 1-42] | – | B (B represents pEC50 between 8 and 9 (EC50 between 1 and 10 nM))
16 | COC(=O)N[C@H](C(=O)N1C[C@@H](C)C[C@H]1c1nc(-c2ccc(-c3ccc(NC(=O)N4CCN(C5CCN(C(=O)OC(C)(C)C)CC5)CC4)cc3OC(F)(F)F)cc2)c(Cl)[nH]1)C(C)C [Example 2-18] | – | C (C represents pEC50 between and 9 and about 10, (EC50 between 1 nM and 0.1 nM))
17 | COC(=O)N[C@H](C(=O)N1C[C@@H](C)C[C@H]1c1nc(-c2ccc(-c3cc(Cl)c(NC(=O)N4CCC(N5CCN(C(=O)OC(C)(C)C)[C@@H](C)C5)CC4)cc3OC(F)(F)F)cc2)c[nH]1)C(C)C [Example 4-1] | – | A (A represents a pEC50 value between 6 and 8 (EC50 between 1 μM and 10 nM))
18 | COC(=O)N[C@H](C(=O)N1CCC[C@H]1c1nc(-c2ccc(-c3ccc(NC(=O)N4CCN(C5CCN(C(=O)OC)CC5)CC4)cc3)cc2)c[nH]1)C(C)C [Example 1-9] | – | B (B represents pEC50 between 8 and 9 (EC50 between 1 and 10 nM))
19 | [2H]C([2H])([2H])C1(C([2H])([2H])[2H])CC1C(=O)N1CCC(N2CCN(C(=O)Nc3cc(OC(F)(F)F)c(-c4ccc(-c5c[nH]c([C@@H]6C[C@H](C)CN6C(=O)[C@@H](NC(=O)OC)C(C)C)n5)cc4)cc3Cl)CC2)CC1 (stereo partly shown) [Example 2-23] | – | C (C represents pEC50 between and 9 and about 10, (EC50 between 1 nM and 0.1 nM))
20 | COC(=O)N[C@H](C(=O)N1C[C@@H](C)C[C@H]1c1nc(-c2ccc(-c3cc(F)c(NC(=O)N4CCN(C5CCN(C(=O)C6CC6)CC5)CC4)cc3OC(F)(F)F)cc2)c[nH]1)C(C)C [Example 2-3] | – | D (D represents pEC50>10 (EC50<0.1 nM))
21 | COC(=O)N[C@H](C(=O)N1C[C@@H](C)C[C@H]1c1nc(-c2ccc(-c3cc(Cl)c(NC(=O)N4CCC(N5CCN(C(=O)C(C)(C)C)C[C@H]5C)CC4)cc3OC(F)(F)F)cc2)c[nH]1)C(C)C [Example 4-16] | – | C (C represents pEC50 between and 9 and about 10, (EC50 between 1 nM and 0.1 nM))
22 | CNC(=O)N1CCC(N2CCN(C(=O)Nc3cc(OC(F)(F)F)c(-c4ccc(-c5c[nH]c([C@@H]6C[C@H](C)CN6C(=O)[C@@H](NC(=O)OC)C(C)C)n5)cc4)cc3Cl)CC2)CC1 [Example 2-7] | – | C (C represents pEC50 between and 9 and about 10, (EC50 between 1 nM and 0.1 nM))
23 | COC(=O)N[C@H](C(=O)N1C[C@@H](C)C[C@H]1c1nc(-c2ccc(-c3cc(F)c(NC(=O)N4CCC(N5CCN(C(=O)C(C)(C)C)CC5)CC4)cc3OC(F)(F)F)cc2)c[nH]1)C(C)C [Example 4-7] | – | C (C represents pEC50 between and 9 and about 10, (EC50 between 1 nM and 0.1 nM))
24 | COC(=O)N[C@H](C(=O)N1C[C@@H](C)C[C@H]1c1nc(-c2ccc(-c3cc(Cl)c(NC(=O)N4CCC(N5CCN(C(=O)[C@H]6CC6(C)C)C[C@H]5C)CC4)cc3OC(F)(F)F)cc2)c[nH]1)C(C)C [Example 4-17] | – | C (C represents pEC50 between and 9 and about 10, (EC50 between 1 nM and 0.1 nM))
25 | COC(=O)N[C@H](C(=O)N1C[C@@H](C)C[C@H]1c1nc2c(ccc3cc(-c4ccc(NC(=O)N5CCN(C6CCN(C(=O)C7CCC7(C)C)CC6)CC5)cc4OC(F)(F)F)ccc32)[nH]1)C(C)C (stereo partly shown) [Example 6-3] | < 0.1 nM | –
26 | COC(=O)N[C@H](C(=O)N1C[C@@H](C)C[C@H]1c1nc(-c2ccc(-c3ccc(NC(=O)N4CCN(C5CCN(C(=O)[C@H]6CC6(C)C)CC5)CC4)cc3OC(F)(F)F)cc2)c(F)[nH]1)C(C)C [Example 10] | – | D (D represents pEC50>10 (EC50<0.1 nM))
27 | COC(=O)N[C@H](C(=O)N1CCC[C@H]1c1nc(-c2ccc(-c3cc(F)c(NC(=O)N4CCN(C5CCN(C(=O)C6CC6)CC5)CC4)cc3OC(F)(F)F)cc2)c[nH]1)C(C)C [Example 1-28] | – | C (C represents pEC50 between and 9 and about 10, (EC50 between 1 nM and 0.1 nM))
28 | COC(=O)N[C@H](C(=O)N1CCC[C@H]1c1nc(-c2ccc(-c3ccc(NC(=O)N4CCC(N5CCN(C(=O)C6CC6)CC5)CC4)cc3)cc2)c[nH]1)C(C)C [Example 3-3] | – | A (A represents a pEC50 value between 6 and 8 (EC50 between 1 μM and 10 nM))

Reference: patent US9206159B2, “Piperazine-piperidine compounds as hepatitis C virus inhibitors” (Theravance Biopharma R&D IP, LLC, priority 2012, dated 2015)
